Results published in patent US20230144023A1, “USE OF BUTYLPHTHALIDE AND DERIVATIVE THEREOF” (CSPC NBP PHARMACEUTICAL CO., LTD, priority 2020, published 2023).
Read-outs that look alike come from different tables or passages of the source.

What was measured:
[1] = tested on: MM.1S, Jeko-1, HT29, A549, DU145; test: In vitro proliferation of 5 cell strains, summary statements (Example 7); format: cell-based, Human; settings: monotherapy of NBP; 5 cell strains
Experimental: Different drug concentration gradients were set for each group.
Monotherapy group of NBP: NBP was 2× serially diluted from an initial concentration of 480 μM to 8 concentrations: 480, 240, 120, 60, 30, 15, 7.5, and 3.75 μM, respectively.
The action time of the drug was 72 h.
3 replicate wells were set for each concentration of each drug, and blank wells (only culture medium was present, and no tumor cells were inoculated) and normal wells (a culture medium inoculated with tumor cells, drug concentration was 0) were set.

A549 = test: In vitro tumor cell proliferation, MTT (Example 7); settings: Homo sapiens, A549, 72 h
Experimental: This experiment includes a monotherapy group of Bortezomib, a combined therapy group (Bortezomib/NBP), and a monotherapy group of NBP. Different drug concentration gradients were set for each group.
Monotherapy group of Bortezomib: (1) MM.1S, Jeko-1, and HT29 cells: Bortezomib was 1.5× serially diluted from an initial concentration of 20 nM to 8 concentrations: 20, 13.33, 8.89, 5.93, 3.95, 2.63, 1.76, and 1.17 nM, respectively; (2) A549 cells: Bortezomib was 2×serially diluted from an initial concentration of 200 nM to 8 concentrations: 200, 100, 50, 25, 12.5, 6.25, 3.13, and 1.56 nM, respectively; and (3) DU145 cells: Bortezomib was 2× serially diluted from an initial concentration of 100 nM to 8 concentrations: 100, 50, 25, 12.5, 6.25, 3.13, 1.56, and 0.78 nM, respectively.
A certain number of conventionally cultured cells in logarithmic growth phase were inoculated in a 96-well plate with 100 μL per well. […] For adherent cells HT29, A549, and DU145, the above drugs were added 24 h after adherence. 3 replicate wells were set for each concentration of each drug, and blank wells (only culture medium was present, and no tumor cells were inoculated) and normal wells (a culture medium inoculated with tumor cells, drug concentration was 0) were set. The drugs functioned for 72 h, then MTT working solution (5 mg/mL) was added at 20 μL per well; after functioning at 37° C. for 4 h, the supernatant was removed, 150 μL of DMSO (analytically pure) was added; the mixture was fully mixed using a microplate oscillator, the plate was wiped clean, and the optical density (OD) at 550 nm was measured using a microplate reader.
The cell growth inhibition rate was computed using the following equation:
Inhibition rate (%)=(OD valuenormal well−OD valueadministration well)/(OD valuenormal well−OD valueblank well)×100%
Based on the inhibition rate of each concentration, the median inhibitory concentration IC50 of the drug was computed using SPSS19.0.

For CCCCC1OC(=O)c2ccccc21 (centres unmarked) [NBP, 3-n-butylphthalide], the “inhibitory effect on in vitro proliferation” value [1] was “does not have obvious inhibitory effect”, the inhibition at 30 µM (A549; read-out: Inhibition rate, First dose) was -11.1% and the inhibition at 30 µM (A549; read-out: Inhibition rate, Mean ± SD) was 1.11 ± 10.8%. The inhibition at 30 µM (A549; read-out: Inhibition rate, Second dose) was 9.68% and the inhibition at 30 µM (A549; read-out: Inhibition rate, Third dose) was 4.74%.
